{
  "source": "patent EP0647645A1",
  "about": "“Novel antitumoral and antiviral compound” (PHARMA MAR, S.A., priority 1993, dated 1995)",
  "key": {"[1]": {"test_system": "HSV-1 (herpes simplex virus, type 1)", "test": "antiviral assay, plaque reduction, HSV-1 in CV-1 cells", "type": "cell-based"}, "CV-1 cells [2]": {"test_system": "CV-1 cells", "test": "cytotoxicity in antiviral assay, inhibition zone on the CV-1 cell sheet", "settings": "CV-1/HSV-1"}, "P388 cell line": {"test_system": "P388 cell line", "test": "P388 assay of fractions during isolation", "type": "cell-based", "settings": "isolation fractions and free base form", "procedure": "The sponge N.sp2 was extracted with methanol and a 3:1 mixture of methanol dichloromethane. An aqueous suspension of the entire 1 Kg extract of Mycale was extracted with three equivalent volumes of chloroform which was in turn back-extracted with distilled water. The organic extract (7.5 g) was loaded onto a C₁₈ flash column (200 g freshly prepared). Elution was started with 50% water/methanol, the methanol content was increased in steps to 100%, and then dichloromethane was added in gradual increments to 50%. Sixteen fractions were collected, weighed and assayed. Good total recovery of mass and activity was obtained with most of the activity confined to one fraction. […] A gradient solvent system was used (CH₂Cl₂, EtOAc, MeOH) and the fractions were monitored by TLC. Much of the fatty acids and pigments were eluted with the mixtures of CH₂Cl₂ and EtOAc, while a yellow charring (H₂SO₄ on silica) material came off in 5 - 20% MeOH in EtOAc. The fractions containing the yellow char were combined to yield a mass of 240 mg. […] This fraction was further purified using amino cartridges (500 mg). The activity was eluted with MeOH to yield 45 mg of material (IC₅₀ 0.5 ng/ml P388). Final purifications was obtained on a LH20 column using the eluting solvent system 9:1 MeOH/CH₂Cl₂ with 2% concentrated aqueous ammonia. This was selected to keep the active component in a free base form. […]"}, "P-388 cells": {"test_system": "P-388 cells", "test": "antitumoral assay, P-388 cell growth inhibition (cell counting)", "type": "cell-based, DBA/2 mouse", "settings": "three days of incubation", "procedure": "(§1) Pateamine was diluted in MeOH/CH₂Cl₂ 1:1 at 100 ng/ml and it has been tested at different concentrations. The solvent was added to evaporate before the cells were seeded.\n(§2) Four general antitumoral assays, employing the currently accepted screening protocols have been carried out using the following cells: P-388 (lymphoid neoplasm from DBA/2 mouse) A-549 (human lung carcinoma) HT-29 (human colon carcinoma) KB (human oral epidermoid carcinoma)\nP-388 cells were seeded into 16 mm wells at 1 x 10⁴ per well in 1 ml aliquots of MEM 10FCS containing the indicated concentration or drug. All determinations were carried out in duplicate. After three days of incubation cells were counted and the IC₅₀ was determined. DATA TABLE-I"}, "CV-1 cells [3]": {"test_system": "CV-1 cells", "test": "cytotoxicity assay, MTT method, CV-1 cells", "type": "cell-based, monkey", "settings": "three days of incubation", "procedure": "(§3) Two types of cytotoxicity assays were conducted, one of them employing conventional screening protocols and the other using the MTT method. In both cases the cells were: CV-1 (monkey kidney fibroblast) BHK (hamster kidney fibroblast)\n(§4) CV-1 and BHK cells were seeded into 9 mm wells at 1 x 10⁴ cells per well (logarithmic phase) and at 2 x 10⁵ cells per well (stationary phase). The day after the inoculum was replaced by […] aliquots of MEM 10FCS containing different concentrations of drug. All determinations were carried out in duplicate. After three days of incubation, 50 µl of medium containing 100 µg of MTT were added. Plates were incubated for two hours, medium was removed and 100 µl of isopropanol were added. The absorbencies were determined with a microtiter reader. DATA TABLE-VII"}, "A-549 cells": {"test_system": "A-549 cells", "test": "antitumoral assay, A-549 cell growth inhibition (cell counting)", "type": "cell-based, human", "settings": "three days of incubation", "procedure": "as §1, §2\n(§5) A-549 cells were seeded into 16 mm wells at 2 x 10⁴ per well. The day after the inoculum was replaced by 1 ml aliquots of MEM 10FCS containing the indicated concentration of drug. All determination were carried out in duplicate. After three days of incubation cells were counted and the IC₅₀ was determined. DATA TABLE-II"}, "[4]": {"test_system": "VSV (vesicular stomatitis virus)", "type": "cell-based"}, "CV-1 cells [5]": {"test_system": "CV-1 cells", "test": "cytotoxicity assay, CV-1 cell growth inhibition (cell counting)", "type": "cell-based, monkey", "settings": "four days of incubation", "procedure": "as §1, §3\nas §5, with “CV-1” for “A-549”, “determinations” for “determination”, “four” for “three”, “TABLE-V” for “TABLE-II”"}, "BHK cells [6]": {"test_system": "BHK cells", "test": "cytotoxicity assay, MTT method, BHK cells", "type": "cell-based, hamster", "settings": "three days of incubation", "procedure": "as §3, §4"}, "HT-29 cells": {"test_system": "HT-29 cells", "test": "antitumoral assay, HT-29 cell growth inhibition (cell counting)", "type": "cell-based, human", "settings": "four days of incubation", "procedure": "as §1, §2\nas §5, with “HT-29” for “A-549”, “4” for “2”, “determinations” for “determination”, “four” for “three”, “TABLE-III” for “TABLE-II”"}, "BHK cells [7]": {"test_system": "BHK cells", "test": "cytotoxicity assay, BHK cell growth inhibition (cell counting)", "type": "cell-based, hamster", "settings": "three days of incubation", "procedure": "as §1, §3\nas §5, with “BHK” for “A-549”, “X” for “x”, “determinations” for “determination”, “TABLE-VI” for “TABLE-II”"}, "Balb/c lymphocytes": {"test_system": "Balb/c lymphocytes", "type": "cell-based, mice"}, "KB cells": {"test_system": "KB cells", "test": "antitumoral assay, KB cell growth inhibition (cell counting)", "type": "cell-based, human", "settings": "four days of incubation", "procedure": "as §1, §2\nas §5, with “KB” for “A-549”, “X” for “x”, “10⁴ cells” for “10⁴”, “determinations” for “determination”, “four” for “three”, “TABLE-IV” for “TABLE-II”"}},
  "data": [
    {"substance": "pateamine", "values": [
      {"measurement": "% Inhibition CV-1/HSV-1 (plaque reduction sign)", "setting": "[1]; 20ng", "result": "+ (The sign (+), indicates that plaques are reduced by approx. 50-60%.)"},
      {"measurement": "% Inhibition CV-1/HSV-1 (plaque reduction sign)", "setting": "[1]; 40ng", "result": "++ (The sign (+ +), indicates that plaques are reduced by approx. 70-90%.)"},
      {"measurement": "% Inhibition CV-1/HSV-1 (plaque reduction sign)", "setting": "[1]; 100ng", "result": "+++ (The sign (+ + +), indicates that plaques are reduced 100%.)"},
      {"measurement": "% Inhibition CV-1/HSV-1 (plaque reduction sign)", "setting": "[1]; 200ng", "result": "+++ (The sign (+ + +), indicates that plaques are reduced 100%.)"},
      {"measurement": "% Inhibition CV-1/HSV-1 (plaque reduction sign)", "setting": "[1]; 400ng", "result": "+++ (The sign (+ + +), indicates that plaques are reduced 100%.)"},
      {"measurement": "IC₅₀ ng/disk", "setting": "[1]; CV-1/HSV-1, ( + ) is the approximately IC₅₀", "result": 20, "unit": "ng/disk"},
      {"measurement": "cytotoxicity for the cells, inhibition zone on the cell sheet", "setting": "CV-1 cells [2]; 10ng", "result": 6},
      {"measurement": "cytotoxicity for the cells, inhibition zone on the cell sheet", "setting": "CV-1 cells [2]; 20ng", "result": 10},
      {"measurement": "cytotoxicity for the cells, inhibition zone on the cell sheet", "setting": "CV-1 cells [2]; 40ng", "result": 12},
      {"measurement": "cytotoxicity for the cells, inhibition zone on the cell sheet", "setting": "CV-1 cells [2]; 100ng", "result": 14},
      {"measurement": "cytotoxicity for the cells, inhibition zone on the cell sheet", "setting": "CV-1 cells [2]; 200ng", "result": 16},
      {"measurement": "cytotoxicity for the cells, inhibition zone on the cell sheet", "setting": "CV-1 cells [2]; 400ng", "result": 16},
      {"measurement": "IC₅₀", "setting": "P388 cell line", "result": 0.15, "unit": "ng/mL"},
      {"measurement": "% Inhibition P-388 cell growth", "setting": "P-388 cells; 0.1ng", "result": 11, "unit": "%"},
      {"measurement": "% Inhibition P-388 cell growth", "setting": "P-388 cells; 0.5ng", "result": 0, "unit": "%"},
      {"measurement": "% Inhibition P-388 cell growth", "setting": "P-388 cells; 1ng", "result": 100, "unit": "%"},
      {"measurement": "% Inhibition P-388 cell growth", "setting": "P-388 cells; 5ng", "result": 100, "unit": "%"},
      {"measurement": "% Inhibition P-388 cell growth", "setting": "P-388 cells; 10ng", "result": 100, "unit": "%"},
      {"measurement": "IC₅₀ ng/ml approx.", "setting": "P-388 cells; P-388 cell growth", "result": "~0.3", "unit": "ng/mL"},
      {"measurement": "IC₅₀", "setting": "CV-1 cells [3]; log. phase", "result": 2.4, "unit": "ng/mL"},
      {"measurement": "IC₅₀", "setting": "CV-1 cells [3]; stat. phase", "result": ">100", "unit": "ng/mL"},
      {"measurement": "% Inhibition A-549 cell growth", "setting": "A-549 cells; 0.1ng", "result": 0, "unit": "%"},
      {"measurement": "% Inhibition A-549 cell growth", "setting": "A-549 cells; 0.5ng", "result": 0, "unit": "%"},
      {"measurement": "% Inhibition A-549 cell growth", "setting": "A-549 cells; 1ng", "result": 71, "unit": "%"},
      {"measurement": "% Inhibition A-549 cell growth", "setting": "A-549 cells; 5ng", "result": 100, "unit": "%"},
      {"measurement": "% Inhibition A-549 cell growth", "setting": "A-549 cells; 10ng", "result": 100, "unit": "%"},
      {"measurement": "IC₅₀ ng/ml approx.", "setting": "A-549 cells; A-549 cell growth", "result": "~0.7", "unit": "ng/mL"},
      {"measurement": "IC₅₀ ng/disk", "setting": "[4]", "result": ">20", "unit": "ng/disk"},
      {"measurement": "% Inhibition CV-1 cell growth", "setting": "CV-1 cells [5]; 0.1ng", "result": 0, "unit": "%"},
      {"measurement": "% Inhibition CV-1 cell growth", "setting": "CV-1 cells [5]; 0.5ng", "result": 0, "unit": "%"},
      {"measurement": "% Inhibition CV-1 cell growth", "setting": "CV-1 cells [5]; 1ng", "result": 31, "unit": "%"},
      {"measurement": "% Inhibition CV-1 cell growth", "setting": "CV-1 cells [5]; 5ng", "result": 84, "unit": "%"},
      {"measurement": "% Inhibition CV-1 cell growth", "setting": "CV-1 cells [5]; 10ng", "result": 100, "unit": "%"},
      {"measurement": "IC₅₀ ng/ml approx.", "setting": "CV-1 cells [5]; CV-1 cell growth", "result": "~2.4", "unit": "ng/mL"},
      {"measurement": "IC₅₀", "setting": "BHK cells [6]; log. phase", "result": 3.7, "unit": "ng/mL"},
      {"measurement": "IC₅₀", "setting": "BHK cells [6]; stat. phase", "result": ">100", "unit": "ng/mL"},
      {"measurement": "% Inhibition HT-29 cell growth", "setting": "HT-29 cells; 0.1ng", "result": 0, "unit": "%"},
      {"measurement": "% Inhibition HT-29 cell growth", "setting": "HT-29 cells; 0.5ng", "result": 0, "unit": "%"},
      {"measurement": "% Inhibition HT-29 cell growth", "setting": "HT-29 cells; 1ng", "result": 35, "unit": "%"},
      {"measurement": "% Inhibition HT-29 cell growth", "setting": "HT-29 cells; 5ng", "result": 85, "unit": "%"},
      {"measurement": "% Inhibition HT-29 cell growth", "setting": "HT-29 cells; 10ng", "result": 91, "unit": "%"},
      {"measurement": "IC₅₀ ng/ml approx.", "setting": "HT-29 cells; HT-29 cell growth", "result": "~2", "unit": "ng/mL"},
      {"measurement": "% Inhibition BHK cell growth", "setting": "BHK cells [7]; 0.1ng", "result": 0, "unit": "%"},
      {"measurement": "% Inhibition BHK cell growth", "setting": "BHK cells [7]; 0.5ng", "result": 0, "unit": "%"},
      {"measurement": "% Inhibition BHK cell growth", "setting": "BHK cells [7]; 1ng", "result": 0, "unit": "%"},
      {"measurement": "% Inhibition BHK cell growth", "setting": "BHK cells [7]; 5ng", "result": 98, "unit": "%"},
      {"measurement": "% Inhibition BHK cell growth", "setting": "BHK cells [7]; 10ng", "result": 100, "unit": "%"},
      {"measurement": "IC₅₀ ng/ml approx.", "setting": "BHK cells [7]; BHK cell growth", "result": "~3", "unit": "ng/mL"},
      {"measurement": "IC₅₀ for the LcV", "setting": "Balb/c lymphocytes", "result": 4.1, "unit": "µg/mL"},
      {"measurement": "% Inhibition KB cell growth", "setting": "KB cells; 0.1ng", "result": 70, "unit": "%"},
      {"measurement": "% Inhibition KB cell growth", "setting": "KB cells; 0.5ng", "result": 67, "unit": "%"},
      {"measurement": "% Inhibition KB cell growth", "setting": "KB cells; 1ng", "result": 96, "unit": "%"},
      {"measurement": "% Inhibition KB cell growth", "setting": "KB cells; 5ng", "result": 100, "unit": "%"},
      {"measurement": "% Inhibition KB cell growth", "setting": "KB cells; 10ng", "result": 100, "unit": "%"},
      {"measurement": "IC₅₀ ng/ml approx.", "setting": "KB cells; KB cell growth", "result": "<0.05", "unit": "ng/mL"}
    ]}
  ]
}
